{
  "source": "DBAASP",
  "assay_in_all_cases": "≥ marks a high value that may be exact or a test limit, other limits are often not marked, values filed in µg/mL are converted to µM",
  "key": {"[1]": {"tested_on": "Escherichia coli CCARM 1238"}, "[2]": {"tested_on": "Pseudomonas aeruginosa 3592"}, "[3]": {"tested_on": "Salmonella typhimurium KCTC 1926"}, "[4]": {"tested_on": "Salmonella typhimurium CCARM 8013"}, "[5]": {"tested_on": "Staphylococcus aureus ATCC 25923"}, "[6]": {"tested_on": "Pseudomonas aeruginosa ATCC 27853"}, "[7]": {"tested_on": "Listeria monocytogenes KCTC 3710"}, "[8]": {"tested_on": "Staphylococcus aureus CCARM 3114"}, "[9]": {"tested_on": "Salmonella typhimurium CCARM 8009"}, "[10]": {"tested_on": "Staphylococcus aureus NBRC 13276"}, "[11]": {"tested_on": "Escherichia coli NBRC 3972"}, "[12]": {"tested_on": "Pseudomonas aeruginosa NBRC 13275"}, "[13]": {"tested_on": "Pseudomonas aeruginosa BH04"}, "[14]": {"tested_on": "Pseudomonas aeruginosa BH01"}, "[15]": {"tested_on": "Pseudomonas aeruginosa BH02"}, "[16]": {"tested_on": "Pseudomonas aeruginosa BH03"}, "[17]": {"tested_on": "Pseudomonas aeruginosa PAO1"}, "Nocardia asteroides": {"tested_on": "Nocardia asteroides"}, "Proteus vulgaris": {"tested_on": "Proteus vulgaris"}, "[18]": {"tested_on": "Stenotrophomonas maltophilia"}, "Staphylococcus aureus 4": {"tested_on": "Staphylococcus aureus 4"}, "Vibrio cholerae": {"tested_on": "Vibrio cholerae"}, "Bacillus subtilis": {"tested_on": "Bacillus subtilis"}, "[19]": {"tested_on": "Salmonella enterica subsp. enterica serovar Paratyphi A"}, "Shigella dysenteriae": {"tested_on": "Shigella dysenteriae"}, "Vibrio harveyi": {"tested_on": "Vibrio harveyi"}, "Enterococcus faecium": {"tested_on": "Enterococcus faecium"}, "Vibrio anguillarum": {"tested_on": "Vibrio anguillarum"}, "Klebsiella oxytoca": {"tested_on": "Klebsiella oxytoca"}, "Aspicilia cinerea": {"tested_on": "Aspicilia cinerea"}, "Proteus mirabilis": {"tested_on": "Proteus mirabilis"}, "Staphylococcus aureus 1": {"tested_on": "Staphylococcus aureus 1"}, "[20]": {"tested_on": "Staphylococcus epidermidis"}, "Escherichia coli 1": {"tested_on": "Escherichia coli 1"}, "Enterococcus faecalis": {"tested_on": "Enterococcus faecalis"}, "[21]": {"tested_on": "Stenotrophomonas maltophilia 2"}, "Aeromonas sobria": {"tested_on": "Aeromonas sobria"}, "Pseudomonas aeruginosa": {"tested_on": "Pseudomonas aeruginosa"}, "Candida albicans": {"tested_on": "Candida albicans"}, "Klebsiella pneumoniae": {"tested_on": "Klebsiella pneumoniae"}, "Acinetobacter baumannii": {"tested_on": "Acinetobacter baumannii"}, "Candida glabrata": {"tested_on": "Candida glabrata"}, "Staphylococcus aureus": {"tested_on": "Staphylococcus aureus"}, "Vibrio parahaemolyticus": {"tested_on": "Vibrio parahaemolyticus"}, "[22]": {"tested_on": "Escherichia coli ATCC 25922"}, "Aeromonas veronii": {"tested_on": "Aeromonas veronii"}, "Aeromonas hydrophila": {"tested_on": "Aeromonas hydrophila"}, "Bacillus cereus": {"tested_on": "Bacillus cereus"}, "Candida glabrata 1": {"tested_on": "Candida glabrata 1"}, "Escherichia coli": {"tested_on": "Escherichia coli"}, "[23]": {"tested_on": "Pseudomonas aeruginosa CGMCC 1.2421"}, "[24]": {"tested_on": "Staphylococcus aureus CGMCC 1.8721"}, "[25]": {"tested_on": "Bacillus subtilis CGMCC 1.3376"}, "[26]": {"tested_on": "Klebsiella pneumoniae CGMCC 1.1736"}, "[27]": {"tested_on": "Escherichia coli CGMCC 1.8732"}, "[28]": {"tested_on": "Staphylococcus epidermidis CGMCC 1.4260"}},
  "note": "“And” between values parts separate entries of the source, which are not always exact repeats. Equal values may be shown once.",
  "data": [
    {"compound": "CC[C@H](C)[C@H](NC(=O)[C@H](Cc1c[nH]c2ccccc12)NC(=O)[C@H](CCCCN)NC(=O)[C@@H](NC(=O)[C@@H](N)CCCCN)[C@@H](C)CC)C(=O)N[C@@H](CC(C)C)C(=O)N[C@@H](CCCCN)C(=O)N[C@@H](Cc1ccc(O)cc1)C(=O)N[C@@H](Cc1c[nH]c2ccccc12)C(=O)N[C@@H](CCCCN)C(=O)N[C@@H](Cc1c[nH]c2ccccc12)C(=O)N[C@@H](CO)C(=O)O", "note": "[KIKWILKYWKWS]", "values": [
      {"measurement": "MIC", "setting": "[1]", "result": "4 µM and 8 µM"},
      {"measurement": "MIC", "setting": "[2]", "result": "8 µM and 16 µM"},
      {"measurement": "MIC", "setting": "[3]", "result": 2, "unit": "µM"},
      {"measurement": "MIC", "setting": "[4]", "result": "16 µM and ≥ 32 µM"},
      {"measurement": "MIC", "setting": "[5]", "result": 0.25, "unit": "µM"},
      {"measurement": "MIC", "setting": "[6]", "result": "4 µM and 8 µM"},
      {"measurement": "MIC", "setting": "[7]", "result": 4, "unit": "µM"},
      {"measurement": "MIC", "setting": "[8]", "result": "16 µM and ≥ 32 µM"},
      {"measurement": "MIC", "setting": "[9]", "result": 8, "unit": "µM"}
    ]},
    {"compound": "CC(=O)N[C@@H](CCCCN)C(=O)N[C@@H](CCCCN)C(=O)N[C@@H](C)C(=O)N[C@@H](CCCCN)C(=O)N[C@@H](CCCCN)C(=O)N[C@@H](C)C(=O)N[C@@H](CCCCN)C(=O)N[C@@H](CCCCN)C(=O)N[C@@H](C)C(N)=O", "note": "[KKAKKAKKA]", "values": [
      {"measurement": "MIC", "setting": "[10]", "result": "≥ 800", "unit": "µM"},
      {"measurement": "MIC", "setting": "[11]", "result": "≥ 800", "unit": "µM"},
      {"measurement": "MIC", "setting": "[12]", "result": "≥ 800", "unit": "µM"}
    ]},
    {"compound": "CC(=O)N[C@@H](CCC(=O)O)C(=O)N[C@@H](CCC(=O)O)C(=O)N[C@@H](CCC(=O)O)C(=O)N[C@@H](CCC(=O)O)C(=O)N[C@@H](C)C(=O)N[C@@H](C)C(=O)N[C@@H](C)C(=O)NCC(=O)N[C@@H](Cc1c[nH]c2ccccc12)C(=O)NCC(=O)N[C@@H](CC(C)C)C(=O)N[C@@H](CCCN=C(N)N)C(=O)N[C@@H](CCCN=C(N)N)C(=O)N[C@@H](CC(C)C)C(=O)N[C@@H](CC(C)C)C(=O)N[C@@H](CCCCN)C(=O)N[C@@H](Cc1ccc(O)cc1)C(=O)NCC(=O)N[C@@H](CCCCN)C(=O)N[C@@H](CCCN=C(N)N)C(=O)N[C@@H](CO)C(N)=O", "note": "[EEEEAAAGWGLRRLLKYGKRS]", "values": [
      {"measurement": "MIC", "setting": "[13]", "result": 26.4, "unit": "µM"},
      {"measurement": "MIC", "setting": "[14]", "result": 26.4, "unit": "µM"},
      {"measurement": "MIC", "setting": "[15]", "result": 26.4, "unit": "µM"},
      {"measurement": "MIC", "setting": "[16]", "result": 26.4, "unit": "µM"},
      {"measurement": "MIC", "setting": "[17]", "result": 26.4, "unit": "µM"}
    ]},
    {"compound": "CC[C@H](C)[C@H](NC(=O)CNC(=O)[C@H](Cc1c[nH]c2ccccc12)NC(=O)CNC(=O)[C@H](C)NC(=O)[C@H](C)NC(=O)[C@H](CCCCN)NC(=O)[C@H](CC(C)C)NC(=O)CNC(=O)CNC(=O)[C@H](CCCN=C(N)N)NC(=O)[C@H](CC(C)C)NC(=O)[C@H](CC(C)C)NC(=O)[C@H](Cc1c[nH]c2ccccc12)NC(=O)[C@H](CC(C)C)NC(=O)[C@H](Cc1c[nH]c2ccccc12)NC(=O)[C@H](CCCN=C(N)N)NC(=O)[C@@H](N)[C@@H](C)O)C(=O)N[C@@H](CCCN=C(N)N)C(=O)N[C@@H](C)C(=O)N[C@@H](Cc1cnc[nH]1)C(=O)N[C@@H](CC(C)C)C(=O)N[C@@H](CC(N)=O)C(=O)N[C@@H](CCCN=C(N)N)C(=O)N[C@@H](CC(N)=O)C(=O)N[C@@H](CCC(N)=O)C(=O)O", "note": "[TRWLWLLRGGLKAAGWGIRAHLNRNQ]", "values": [
      {"measurement": "MIC", "setting": "Nocardia asteroides", "result": 6.16, "unit": "µM"},
      {"measurement": "MIC", "setting": "Proteus vulgaris", "result": "≥ 65.7", "unit": "µM"},
      {"measurement": "MIC", "setting": "[18]", "result": "≥ 65.7", "unit": "µM"},
      {"measurement": "MIC", "setting": "Staphylococcus aureus 4", "result": 3.08, "unit": "µM"},
      {"measurement": "MIC", "setting": "Vibrio cholerae", "result": 12.3, "unit": "µM"},
      {"measurement": "MIC", "setting": "Bacillus subtilis", "result": 3.08, "unit": "µM"},
      {"measurement": "MIC", "setting": "[19]", "result": 12.3, "unit": "µM"},
      {"measurement": "MIC", "setting": "Shigella dysenteriae", "result": 12.3, "unit": "µM"},
      {"measurement": "MIC", "setting": "Vibrio harveyi", "result": 12.3, "unit": "µM"},
      {"measurement": "MIC", "setting": "Enterococcus faecium", "result": "≥ 65.7", "unit": "µM"},
      {"measurement": "MIC", "setting": "Vibrio anguillarum", "result": 6.16, "unit": "µM"},
      {"measurement": "MIC", "setting": "Klebsiella oxytoca", "result": "≥ 65.7", "unit": "µM"},
      {"measurement": "MIC", "setting": "Aspicilia cinerea", "result": "≥ 65.7", "unit": "µM"},
      {"measurement": "MIC", "setting": "[5]", "result": "> 65.7", "unit": "µM"},
      {"measurement": "MIC", "setting": "Proteus mirabilis", "result": 3.08, "unit": "µM"},
      {"measurement": "MIC", "setting": "[6]", "result": 12.3, "unit": "µM"},
      {"measurement": "MIC", "setting": "Staphylococcus aureus 1", "result": "≥ 65.7", "unit": "µM"},
      {"measurement": "MIC", "setting": "[20]", "result": "≥ 65.7", "unit": "µM"},
      {"measurement": "MIC", "setting": "Escherichia coli 1", "result": 1.54, "unit": "µM"},
      {"measurement": "MIC", "setting": "Enterococcus faecalis", "result": "≥ 65.7", "unit": "µM"},
      {"measurement": "MIC", "setting": "[21]", "result": 6.16, "unit": "µM"},
      {"measurement": "MIC", "setting": "Aeromonas sobria", "result": 12.3, "unit": "µM"},
      {"measurement": "MIC", "setting": "Pseudomonas aeruginosa", "result": 6.16, "unit": "µM"},
      {"measurement": "MIC", "setting": "Candida albicans", "result": "> 65.7", "unit": "µM"},
      {"measurement": "MIC", "setting": "Klebsiella pneumoniae", "result": 3.08, "unit": "µM"},
      {"measurement": "MIC", "setting": "Acinetobacter baumannii", "result": "≥ 65.7", "unit": "µM"},
      {"measurement": "MIC", "setting": "Candida glabrata", "result": 12.3, "unit": "µM"},
      {"measurement": "MIC", "setting": "Staphylococcus aureus", "result": 12.3, "unit": "µM"},
      {"measurement": "MIC", "setting": "Vibrio parahaemolyticus", "result": 12.3, "unit": "µM"},
      {"measurement": "MIC", "setting": "[22]", "result": 3.08, "unit": "µM"},
      {"measurement": "MIC", "setting": "Aeromonas veronii", "result": 24.6, "unit": "µM"},
      {"measurement": "MIC", "setting": "Aeromonas hydrophila", "result": 12.3, "unit": "µM"},
      {"measurement": "MIC", "setting": "Bacillus cereus", "result": "≥ 65.7", "unit": "µM"},
      {"measurement": "MIC", "setting": "Candida glabrata 1", "result": "≥ 65.7", "unit": "µM"},
      {"measurement": "MIC", "setting": "Escherichia coli", "result": 4.36, "unit": "µM"}
    ]},
    {"compound": "CC[C@H](C)[C@H](NC(=O)[C@H](CO)NC(=O)CNC(=O)[C@@H](NC(=O)[C@@H](N)CCCN=C(N)N)[C@@H](C)CC)C(=O)N[C@@H](CC(C)C)C(=O)NCC(=O)N[C@@H](CCCN=C(N)N)C(=O)N[C@@H](CC(C)C)C(=O)N[C@@H](C)C(=O)N[C@@H](CCCCN)C(=O)NCC(=O)N[C@@H](CC(C)C)C(=O)N1CCC[C@H]1C(=O)N[C@H](C(=O)N[C@@H](CC(C)C)C(=O)N[C@@H](CCCN=C(N)N)C(=O)N[C@@H](CO)C(=O)N[C@@H](Cc1c[nH]c2ccccc12)C(=O)N[C@H](C(=O)N[C@@H](CCCCN)C(=O)N[C@@H](CC(N)=O)C(=O)N[C@@H](CCCN=C(N)N)C(N)=O)[C@@H](C)CC)[C@@H](C)O", "note": "[RIGSILGRLAKGLPTLRSWIKNR]", "values": [
      {"measurement": "MIC", "setting": "[23]", "result": 12.5, "unit": "µM"},
      {"measurement": "MIC", "setting": "[24]", "result": "≥ 100", "unit": "µM"},
      {"measurement": "MIC", "setting": "[25]", "result": 12.5, "unit": "µM"},
      {"measurement": "MIC", "setting": "[26]", "result": 12.5, "unit": "µM"},
      {"measurement": "MIC", "setting": "[27]", "result": 12.5, "unit": "µM"},
      {"measurement": "MIC", "setting": "[28]", "result": 3.13, "unit": "µM"}
    ]}
  ]
}
